From US20120214802A1, “PYRROLIDINE COMPOUNDS WHICH INHIBIT BETA-SECRETASE ACTIVITY AND METHODS OF USE THEREOF” (priority 2009, published 2012)

Assays:
memapsin 2 [1] = target: memapsin 2 (Homo sapiens, UniProt P56817); assay: Inhibition of memapsin 2 beta-secretase activity (fluorogenic substrate FS-2); assay type: biochemical; conditions: pH 4, 37° C., read-out: M2 Ki
Procedure: Potency of compounds were determined by measurement of their inhibition of memapsin 2 activity toward a fluorescent substrate. Kinetic inhibition experiments were performed using the procedure as described in Ermolieff, et al. (Biochemistry 39:12450-12456 (2000), the teachings of which are incorporated hereby in their entirety). Briefly, assays were performed at pH 4, 37° C., by pre-incubation of memapsin 2 enzyme with compound for 20 minutes. Activity measurements were initiated by addition of a fluorogenic substrate FS-2 (Bachem Americas, Torrance, Calif.) MCA-SEVNLDAEFR-DNP (SEQ ID NO.: 2). The substrate was derived from 10 amino acids of the human amyloid precursor protein (APP), with the Swedish variant amino acids at the beta-secretase cleavage site. The terminal amino acid was modified from arginine to lysine to facilitate derivatization with a functional group for detection by autofluorescence. The amino acid sequence of the “core” peptide of the substrate is SEVNLDAEFK (SEQ ID NO.: 3). The amino terminus was derivatized with (7-methoxycoumarin-4-yl)acetyl (MCA), and the epsilon amine of the lysine side chain of the terminal residue (K in sequence SEVNLDAEFK (SEQ ID NO.: 3)) was derivatized with 2,4-dinitorphenyl (DNP).

memapsin 2 [2] = target: T1, memapsin 2 (Cricetulus griseus, UniProt G3IAK4); assay: Cellular Aβ IC50 determination (Aβ40 sandwich ELISA); assay type: cell-based, Chinese hamster; conditions: CHO cells over-expressing human APP695 with London and Swedish mutations, 24 h, read-out: M2 IC50
T1 construct: endogenous in cells; host or cells: Chinese hamster ovary cells over-expressing human APP695 (London + Swedish)
T1 sequence (G3IAK4 22-501): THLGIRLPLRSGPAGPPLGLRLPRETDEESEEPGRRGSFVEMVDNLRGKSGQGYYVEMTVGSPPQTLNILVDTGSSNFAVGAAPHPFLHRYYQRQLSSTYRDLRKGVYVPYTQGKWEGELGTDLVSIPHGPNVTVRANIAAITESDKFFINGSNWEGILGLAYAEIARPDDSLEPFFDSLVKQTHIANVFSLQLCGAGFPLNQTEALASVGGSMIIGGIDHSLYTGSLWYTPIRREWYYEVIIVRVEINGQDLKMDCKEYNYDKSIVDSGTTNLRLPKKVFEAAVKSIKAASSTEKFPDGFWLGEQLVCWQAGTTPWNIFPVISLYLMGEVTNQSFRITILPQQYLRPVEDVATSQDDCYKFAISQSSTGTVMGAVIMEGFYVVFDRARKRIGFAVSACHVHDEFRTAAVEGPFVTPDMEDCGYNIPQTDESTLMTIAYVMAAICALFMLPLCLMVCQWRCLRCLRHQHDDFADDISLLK
Procedure: The potency of compounds against memapsin 2 activity was determined in a cellular assay of Aβ production. […] Chinese hamster ovary cells that over-express human APP695 with the London and Swedish mutations were seeded in multi-well plates at 10% confluency. Compounds are dissolved in DMSO to concentrations near 1 mM, and diluted into culture media to a final concentration near 4 μM (final 0.4% DMSO). Compounds were diluted serially and applied to cells in multi-well plates 48 h after seeding. Incubation was continued in 5% CO2 at 37° C. for 24 h. Aliquots were removed and assayed for […] using a sandwich ELISA (BioSource International). Amount of Aβ40 over the range of concentration of compounds, relative to control incubations, were fit to a 4-parameter IC50 model.

CYP3A4 = target: T2, CYP3A4 (Homo sapiens, UniProt P08684); assay: CYP3A4 inhibition (midazolam metabolism in human liver microsomes); assay type: in vitro ADME; conditions: substrate midazolam, read-out: CYP 3A4Ki
T2 construct: host or cells: human liver microsomes
T2 sequence (P08684 whole entry): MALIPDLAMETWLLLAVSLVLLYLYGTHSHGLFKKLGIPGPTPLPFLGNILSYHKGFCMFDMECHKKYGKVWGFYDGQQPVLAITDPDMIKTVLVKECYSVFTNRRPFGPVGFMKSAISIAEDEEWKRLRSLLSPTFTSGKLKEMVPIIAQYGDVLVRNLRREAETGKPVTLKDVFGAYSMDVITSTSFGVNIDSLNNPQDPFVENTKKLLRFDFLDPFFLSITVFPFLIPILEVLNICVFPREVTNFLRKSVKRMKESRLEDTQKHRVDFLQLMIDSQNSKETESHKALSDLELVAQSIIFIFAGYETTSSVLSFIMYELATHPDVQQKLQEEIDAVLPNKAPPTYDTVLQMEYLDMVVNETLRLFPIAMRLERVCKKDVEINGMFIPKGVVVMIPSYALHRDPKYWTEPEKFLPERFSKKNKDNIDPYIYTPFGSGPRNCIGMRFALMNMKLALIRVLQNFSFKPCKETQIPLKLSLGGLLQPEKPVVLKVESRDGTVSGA
Procedure: To evaluate the drug-drug interaction potential for compounds, the potency to inhibit the major metabolic cytochrome CYP450 isoform 3A4 was assessed. The inhibition constant Ki was determined for inhibition of the metabolism of midazolam, a CYP3A4 substrate.
CYP3A4 Ki assays were performed following a recently published protocol with slight modifications (Di, L., Kerns, E. H., Li, S. Q., and Carter, G. T. (2007) Comparison of cytochrome P450 inhibition assays for drug discovery using human liver microsomes with LC-MS, rhCYP450 isozymes with fluorescence, and double cocktail with LC-MS. International Journal of Pharmaceutics 335: 1-11). The P450 inhibition assay was performed in 96-well plates at 37.2° C. in a shaking incubator. The compounds were diluted from 5 mM stocks in 100% DMSO and incubated at seven final concentrations from 0.078 to 10 μM (0.1% DMSO in each final incubation), with human liver microsomes (HLM) at a final protein concentration of 0.1 mg/mL protein and a substrate concentration ranging from 1.25 to 10 μM.
The assay was standardized for both phosphate buffer (100 mM, pH 7.4) and the NADPH regenerating system (MgCl2, 3.3 mM; G6P, 3.3 mM; G6PD, 1 U/ml; NADP+, 1.3 mM). Eight replicate control samples (0.1% DMSO, no compound) were prepared. Assays (200 μL) were set up by mixing HLM+substrate stock, 10 μL of test article in 2% DMSO, and the substrate before initiating the reaction with the addition of the regenerating system mixture. Reactions were quenched following incubation for 20, 30 and 40 minutes as described following.
After incubation for the specified time in a humidified shaking incubator, 20 μL of the reaction mixture was removed and the reactions were terminated by adding 200 μL of cold acetonitrile. Samples were centrifuged at 1000×g for 15 minutes in Solvinert filter plate. The receptor plate was dried via speed vacuum at 40° C. The sample was reconstituted with a reconstitution buffer composed of 10% acetonitrile, 10% DMSO, 80% H2O with an internal standard added at a concentration of 100 ng/ml. MS-Analysis was completed using LC-MS/MS. Formation of 1′-hydroxymidazolam was measured by monitoring a specific SRM (342>203) transition for the CYP3A4 metabolite.
Data were expressed as the relative quantity of midazolam metabolite relative to control incubations. Initial velocities were obtained by multiplying the relative quantity by the initial substrate concentration and dividing by the incubation duration. Data were transformed to inverse of inivital velocity and expressed vs. inhibitor concentration [I] for determination of Ki by the Dixon method (Dixon, M. (1953) Biochemical Journal 55: 170-171) using where intercept [I]=−Ki was determined at multiple substrate concentrations.

memapsin 2 (Homo sapiens, UniProt P56817), sequence (P56817 46-501): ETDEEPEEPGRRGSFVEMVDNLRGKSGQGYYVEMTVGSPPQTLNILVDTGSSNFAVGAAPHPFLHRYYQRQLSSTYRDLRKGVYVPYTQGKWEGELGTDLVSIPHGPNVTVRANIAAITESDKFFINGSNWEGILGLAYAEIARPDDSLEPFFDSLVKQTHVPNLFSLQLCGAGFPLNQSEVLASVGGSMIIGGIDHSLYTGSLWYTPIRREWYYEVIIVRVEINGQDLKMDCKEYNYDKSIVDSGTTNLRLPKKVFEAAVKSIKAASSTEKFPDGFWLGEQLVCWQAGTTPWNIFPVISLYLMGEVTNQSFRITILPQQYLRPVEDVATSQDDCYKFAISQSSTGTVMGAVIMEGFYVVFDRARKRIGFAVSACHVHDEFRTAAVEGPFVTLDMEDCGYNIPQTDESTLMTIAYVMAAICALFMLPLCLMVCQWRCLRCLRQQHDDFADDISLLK

| Compound | Ki (memapsin 2 [1]) | IC50 (memapsin 2 [2]) | Ki (CYP3A4) |
| --- | --- | --- | --- |
| Cc1csc([C@H]2CCCN2C(=O)c2cc(C(=O)N[C@@H](Cc3ccccc3)[C@H](O)[C@H]3CCCN3)cc(-c3cnccn3)c2)n1 [1-20, N-((1R,2S)-1-hydroxy-3-phenyl-1-((R)-pyrrolidin-2-yl)propan-2-yl)-3-((R)-2-(4-methylthiazol-2-yl)pyrrolidine-1-carbonyl)-5-(pyrazin-2-yl)benzamide] | < 250 nM | < 500 nM | > 10000 nM |
| Cc1coc([C@H]2CCCN2C(=O)c2cc(C(=O)N[C@@H](Cc3ccccc3)[C@H](O)[C@H]3CCCN3)cc(-c3ccccn3)c2)n1 [1-24, N-((1R,2S)-1-hydroxy-3-phenyl-1-((R)-pyrrolidin-2-yl)propan-2-yl)-3-((R)-2-(4-methyloxazol-2-yl)pyrrolidine-1-carbonyl)-5-(pyridin-2-yl)benzamide] | < 250 nM | < 500 nM |  |
| Cc1coc([C@H]2CCCN2C(=O)c2cc(C(=O)N[C@@H](Cc3ccccc3)[C@H](O)[C@H]3CCCN3)cc(-n3cccc3)c2)n1 [1-26, N-((1R,2S)-1-hydroxy-3-phenyl-1-((R)-pyrrolidin-2-yl)propan-2-yl)-3-((R)-2-(4-methyloxazol-2-yl)pyrrolidine-1-carbonyl)-5-(1H-pyrrol-1-yl)benzamide] | < 250 nM |  | 5000 to 10000 nM |
| Cc1csc(CN(C)C(=O)c2cc(C(=O)N[C@@H](Cc3ccccc3)[C@H](O)[C@H]3CCCN3)cc(N(C)S(C)(=O)=O)c2)n1 [1-27, N1-((1R,2S)-1-hydroxy-3-phenyl-1-((R)-pyrrolidin-2-yl)propan-2-yl)-N3-methyl-5-(N-methylmethylsulfonamido)-N3-((4-methylthiazol-2-yl)methyl)isophthalamide] | 250 to 750 nM | < 500 nM |  |
| Cc1coc([C@H]2CCCN2C(=O)c2cc(C(=O)N[C@@H](Cc3ccccc3)[C@H](O)[C@H]3CCCN3)cc(N(C)S(C)(=O)=O)c2)n1 [1-28, N-((1R,2S)-1-hydroxy-3-phenyl-1-((R)-pyrrolidin-2-yl)propan-2-yl)-3-(N-methylmethylsulfonamido)-5-((R)-2-(4-methyloxazol-2-yl)pyrrolidine-1-carbonyl)benzamide] | < 250 nM |  | > 10000 nM |
| Cc1csc([C@H]2CCCN2C(=O)c2cc(C(=O)N[C@@H](Cc3ccccc3)[C@H](O)[C@H]3CCCN3)cc(N3CCOCC3)c2)n1 [1-33, N-((1R,2S)-1-hydroxy-3-phenyl-1-((R)-pyrrolidin-2-yl)propan-2-yl)-3-((R)-2-(4-methylthiazol-2-yl)pyrrolidine-1-carbonyl)-5-morpholinobenzamide] | > 750 nM | > 1000 nM | 5000 to 10000 nM |
| COc1cc(C(=O)N[C@@H](Cc2ccccc2)[C@H](O)[C@H]2CCCN2)cc(C(=O)N2CCC[C@@H]2c2nc(C)cs2)c1 [1-34, N-((1R,2S)-1-hydroxy-3-phenyl-1-((R)-pyrrolidin-2-yl)propan-2-yl)-3-methoxy-5-((R)-2-(4-methylthiazol-2-yl)pyrrolidine-1-carbonyl)benzamide] | < 250 nM | > 1000 nM | 5000 to 10000 nM |
| Cc1csc([C@H]2CCCN2C(=O)c2cc(CF)cc(C(=O)N[C@@H](Cc3ccccc3)[C@H](O)[C@H]3C[C@@H](OCc4ccccc4)CN3)c2)n1 [1-36, N-((1R,2S)-1-((2R,4R)-4-(benzyloxy)pyrrolidin-2-yl)-1-hydroxy-3-phenylpropan-2-yl)-3-(fluoromethyl)-5-((R)-2-(4-methylthiazol-2-yl)pyrrolidine-1-carbonyl)benzamide] | < 250 nM | < 500 nM | > 10000 nM |
| Cc1csc([C@H]2CCCN2C(=O)c2cc(C(=O)N[C@@H](Cc3ccccc3)[C@H](O)[C@H]3CCCN3)cc(N(C)C)c2)n1 [1-42, 3-(dimethylamino)-N-((1R,2S)-1-hydroxy-3-phenyl-1-((R)-pyrrolidin-2-yl)propan-2-yl)-5-((R)-2-(4-methylthiazol-2-yl)pyrrolidine-1-carbonyl)benzamide] | 250 to 750 nM | > 1000 nM |  |
| Cc1csc([C@H]2CCCN2C(=O)c2cc(CF)cc(C(=O)N[C@H](Cc3ccccc3)[C@H](O)[C@H]3C[C@@H](OCc4ccccc4)CN3)c2)n1 [1-45, N-((1R,2R)-1-((2R,4R)-4-(benzyloxy)pyrrolidin-2-yl)-1-hydroxy-3-phenylpropan-2-yl)-3-(fluoromethyl)-5-((R)-2-(4-methylthiazol-2-yl)pyrrolidine-1-carbonyl)benzamide] | > 750 nM | > 1000 nM |  |
| Cc1csc([C@H]2CCCN2C(=O)c2cc(C(=O)N[C@@H](Cc3ccccc3)[C@H](O)[C@H]3CCCN3)cc(N3CCC(F)(F)CC3)c2)n1 [1-46, 3-(4,4-difluoropiperidin-1-yl)-N-((1R,2S)-1-hydroxy-3-phenyl-1-((R)-pyrrolidin-2-yl)propan-2-yl)-5-((R)-2-(4-methylthiazol-2-yl)pyrrolidine-1-carbonyl)benzamide] | 250 to 750 nM | 500 to 1000 nM |  |
| Cc1csc([C@H]2CCCN2C(=O)c2cccc(C(=O)N[C@@H](Cc3ccccc3)[C@H](O)[C@H]3C[C@H](F)CN3)c2)n1 [1-47, N-((1R,2S)-1-((2R,4S)-4-fluoropyrrolidin-2-yl)-1-hydroxy-3-phenylpropan-2-yl)-3-((R)-2-(4-methylthiazol-2-yl)pyrrolidine-1-carbonyl)benzamide] | 250 to 750 nM | > 1000 nM |  |
| Cc1csc([C@H]2CCCN2C(=O)c2cccc(C(=O)N[C@@H](Cc3ccccc3)[C@H](O)[C@@H]3CCCN3)c2)n1 [1-48, N-((1R,2S)-1-hydroxy-3-phenyl-1-((S)-pyrrolidin-2-yl)propan-2-yl)-3-((R)-2-(4-methylthiazol-2-yl)pyrrolidine-1-carbonyl)benzamide] | > 750 nM | > 1000 nM |  |
| Cc1csc([C@H]2CCCN2C(=O)c2cc(C(=O)N[C@@H](Cc3ccccc3)[C@H](O)[C@H]3CCCN3)cc(C3CC3)c2)n1 [1-50, 3-cyclopropyl-N-((1R,2S)-1-hydroxy-3-phenyl-1-((R)-pyrrolidin-2-yl)propan-2-yl)-5-((R)-2-(4-methylthiazol-2-yl)pyrrolidine-1-carbonyl)benzamide] | < 250 nM | > 1000 nM |  |
| Cc1csc([C@H]2CCCN2C(=O)c2cccc(C(=O)N[C@@H](Cc3ccccc3)[C@H](O)[C@H]3CC[C@@H](C)N3)c2)n1 [1-51, N-((1R,2S)-1-hydroxy-1-((2R,5R)-5-methylpyrrolidin-2-yl)-3-phenylpropan-2-yl)-3-((R)-2-(4-methylthiazol-2-yl)pyrrolidine-1-carbonyl)benzamide] | > 750 nM | > 1000 nM |  |
| Cc1csc([C@H]2CCCN2C(=O)c2cccc(C(=O)N[C@@H](Cc3cccc(F)c3)[C@H](O)[C@H]3CCCN3)c2)n1 [1-53, N-((1R,2S)-3-(3-fluorophenyl)-1-hydroxy-1-((R)-pyrrolidin-2-yl)propan-2-yl)-3-((R)-2-(4-methylthiazol-2-yl)pyrrolidine-1-carbonyl)benzamide] | < 250 nM | 500 to 1000 nM |  |
